# Reference: EP0676201B1, “Use of a riminophenazine for treating MDR resistance” (priority 1994, dated 1995)
# Where two headings read alike, the source gives them in different places.
# How the values were obtained:
# H69/P = test: MTT assay, 7-day exposure: sensitivity of parent cells to chemotherapeutic agents with or without MDR inhibitor (Example 1); format: cell-based, human; settings: for fold sensitivity compared with the chemotherapeutic agent without the MDR inhibitor, B669 / fold sensitivity compared with the chemotherapeutic agent without the MDR inhibitor, Clofazimine (B663) / fold sensitivity compared with the chemotherapeutic agent without the MDR inhibitor, CsA: value in parenthesis; for fold sensitivity compared with the chemotherapeutic agent without the MDR inhibitor, CsA: with CsA 5 µg/ml; for IC50: Homo sapiens, 168 h
# Description: (§1) A further test using no MDR inhibitor was used as a standard.
# H69/LX4 = test: MTT assay, 7-day exposure: sensitivity of resistant (MDR) cells to chemotherapeutic agents with or without MDR inhibitor (Example 1); format: cell-based; settings: Homo sapiens, 168 h
# Description: as §1
# The cell lines used were human small cell lung cancer cell line HP69/P and a multi-drug resistant (MDR) sub-line H69/LX4, both of which were supplied by the MRC Clinical Oncology and Radiotherapeutics Unit, Hills Road, Cambridge, England. The maintenance of the cell lines and drug response assays was done as described by Twentyman et al in British Journal of Cancer Volume 65 pages 335-340. The H69/LX4 line was originally described by Twentyman et al in British Journal of Cancer Volume 53, pages 529-637 (1986).
# The data in parenthesis represents fold sensitivity compared with the chemotherapeutic agent without the MDR inhibitor.
# K562/MMB = test: MTT assay, 7-day exposure to riminophenazines alone or with fixed doxorubicin or vinblastine (Example 4); format: cell-based; settings: Homo sapiens, K562, 168 h
# Description: A third cell line (562/MMB) used was a MDR leukemia cell line selected in vitro by progressive exposure to increasing concentrations of vinblastine in order to increase P-glycoprotein expression. […] This cell line expresses high levels of P-glycoprotein as determined by flowcytometry using the monoclonal antibody (MRK 16) against this molecule.
# The effects were examined of a 7-day exposure of selected compounds on the sensitivity of the cell line (K562/MMB) to the standard chemotherapeutic agents doxorubicin and vinblastine, using the MTT assay.
# The cells were seeded at 1 x 10^4 cells per well in 96 well microlitre plates in a volume of 200 µl of RPMI 1640 medium containing 10 % fetal calf serum and incubated with doxorubicin (12.5 ng/ml) or vinblastine (3 ng/ml). The amounts of MDR modulators used were 0.03, 0.06, 0.125, 0.5, 1.0 and 2.0 µg/ml.
# After incubation at 37 °C for 7 days, 20 µl MTT (i.e. 3-[4,5-dimethylthiazol-2-yl]2,5-diphenyl-tetrazolium bromide) at 5 mg/ml was added to each well and the plates incubated for a further 4 hours. The cells were washed with phosphate buffered saline and the intracellular formazan crystals solubilized with dimethylsulphoxide, and the absorbency measured spectrophotometrically at a test wavelength of 540 nm and a reference wavelength of 620 nm.
# [1] = H69/P, with Clofazimine 1 µg/ml
# [2] = read-out: IC50 of chemotherapeutic agent, MDR INHIBITOR CsA
# [3] = H69/P, no MDR inhibitor, 7 day exposure, mean of 2 - 4 experiments, read-out: IC50 of chemotherapeutic agent, MDR INHIBITOR None
# [4] = H69/P, with B669 0.5 µg/ml, 7 day exposure, read-out: IC50 of chemotherapeutic agent, MDR INHIBITOR B669
# [5] = H69/P, with Clofazimine 1 µg/ml, 7 day exposure, read-out: IC50 of chemotherapeutic agent, MDR INHIBITOR Clofazimine (B663)
# [6] = H69/LX4, no MDR inhibitor, 7 day exposure, mean of 2 - 4 experiments, read-out: IC50 of chemotherapeutic agent, MDR INHIBITOR None
# [7] = H69/LX4, with B669 0.5 µg/ml, 7 day exposure, read-out: IC50 of chemotherapeutic agent, MDR INHIBITOR B669
# [8] = H69/LX4, with Clofazimine 1 µg/ml, 7 day exposure, read-out: IC50 of chemotherapeutic agent, MDR INHIBITOR Clofazimine (B663)
# [9] = in the presence of doxorubicin (12 ng/ml), read-out: IC 50 of riminophenazine, Doxorubicin
# [10] = in the presence of vinblastine (3 ng/ml), read-out: IC 50 of riminophenazine, Vinblastine
# [11] = riminophenazine alone, mean of 2 experiments, read-out: IC 50 of riminophenazine, None
# [12] = read-out: IC50 of chemotherapeutic agent, MDR INHIBITOR B669
# [13] = read-out: IC50 of chemotherapeutic agent, MDR INHIBITOR Clofazimine (B663)
# [14] = read-out: IC50 of chemotherapeutic agent, MDR INHIBITOR None
Structure (SMILES),IC50 (K562/MMB; [9]) [ng/mL],IC50 (K562/MMB; [10]) [ng/mL],IC50 (K562/MMB; [11]) [ng/mL],also measured
CC[C@]1(O)C[C@@H]2CN(CCc3c([nH]c4ccccc34)[C@@](C(=O)OC)(c3cc4c(cc3OC)N(C)[C@H]3[C@@](O)(C(=O)OC)[C@H](OC(C)=O)[C@]5(CC)C=CCN6CC[C@]43[C@@H]65)C2)C1 [Vinblastine],–,–,–,"fold sensitivity compared with the chemotherapeutic agent without the MDR inhibitor, B669 (H69/P; H69/P, with B669 0.5 µg/ml): 1.1 fold; fold sensitivity compared with the chemotherapeutic agent without the MDR inhibitor, Clofazimine (B663) (H69/P; [1]): 1.3 fold; fold sensitivity compared with the chemotherapeutic agent without the MDR inhibitor, CsA (H69/P; H69/P): 1.4 fold; IC50 (H69/P; [2]): 0.7 ng/mL; IC50 (H69/P; [3]): 1 ng/mL; IC50 (H69/P; [4]): 0.9 ng/mL; IC50 (H69/P; [5]): 0.8 ng/mL; IC50 (H69/LX4; [2]): 8 ng/mL; IC50 (H69/LX4; [6]): 120 ng/mL; IC50 (H69/LX4; [7]): 8 ng/mL; IC50 (H69/LX4; [8]): 8 ng/mL"
COc1cccc2c1C(=O)c1c(O)c3c(c(O)c1C2=O)C[C@@](O)(C(C)=O)C[C@@H]3O[C@H]1C[C@H](N)[C@H](O)[C@H](C)O1 [Daunorubicin],–,–,–,"fold sensitivity compared with the chemotherapeutic agent without the MDR inhibitor, B669 (H69/P; H69/P, with B669 0.5 µg/ml): 1.2 fold; fold sensitivity compared with the chemotherapeutic agent without the MDR inhibitor, Clofazimine (B663) (H69/P; [1]): 1.0 fold; fold sensitivity compared with the chemotherapeutic agent without the MDR inhibitor, CsA (H69/P; H69/P): 1.0 fold; IC50 (H69/P; [2]): 2 ng/mL; IC50 (H69/P; [3]): 2 ng/mL; IC50 (H69/P; [4]): 1.6 ng/mL; IC50 (H69/P; [5]): 2 ng/mL; IC50 (H69/LX4; [2]): 4 ng/mL; IC50 (H69/LX4; [6]): 36 ng/mL; IC50 (H69/LX4; [7]): 15 ng/mL; IC50 (H69/LX4; [8]): 9 ng/mL"
COc1cc([C@@H]2c3cc4c(cc3[C@@H](O[C@@H]3O[C@@H]5CO[C@@H](C)O[C@H]5[C@H](O)[C@H]3O)[C@H]3COC(=O)[C@H]23)OCO4)cc(OC)c1O [Etoposide],–,–,–,"fold sensitivity compared with the chemotherapeutic agent without the MDR inhibitor, B669 (H69/P; H69/P, with B669 0.5 µg/ml): 1.2 fold; fold sensitivity compared with the chemotherapeutic agent without the MDR inhibitor, Clofazimine (B663) (H69/P; [1]): 0.6 fold; fold sensitivity compared with the chemotherapeutic agent without the MDR inhibitor, CsA (H69/P; H69/P): 0.8 fold; IC50 (H69/P; [2]): 0.09 ng/mL; IC50 (H69/P; [3]): 0.7 ng/mL; IC50 (H69/P; [4]): 0.06 ng/mL; IC50 (H69/P; [5]): 0.11 ng/mL; IC50 (H69/LX4; [2]): 0.08 ng/mL; IC50 (H69/LX4; [6]): 13 ng/mL; IC50 (H69/LX4; [7]): 0.09 ng/mL; IC50 (H69/LX4; [8]): 2.6 ng/mL"
O=P1(N(CCCl)CCCl)NCCCO1 (stereo not shown) [Cyclophosphamide],–,–,–,"fold sensitivity compared with the chemotherapeutic agent without the MDR inhibitor, B669 (H69/P; H69/P, with B669 0.5 µg/ml): 1.0 fold; fold sensitivity compared with the chemotherapeutic agent without the MDR inhibitor, Clofazimine (B663) (H69/P; [1]): 0.9 fold; fold sensitivity compared with the chemotherapeutic agent without the MDR inhibitor, CsA (H69/P; H69/P): 1.1 fold; IC50 (H69/P; [12]): 1800 ng/mL; IC50 (H69/P; [13]): 1900 ng/mL; IC50 (H69/P; [2]): 1600 ng/mL; IC50 (H69/P; [14]): 1800 ng/mL; IC50 (H69/LX4; [12]): 1400 ng/mL; IC50 (H69/LX4; [13]): 1600 ng/mL; IC50 (H69/LX4; [2]): 1700 ng/mL; IC50 (H69/LX4; [14]): 1600 ng/mL"
CC1(C)CC(N=c2cc3n(-c4ccc(Cl)cc4)c4ccc(Cl)cc4nc-3cc2Nc2ccc(Cl)cc2)CC(C)(C)N1 [Compound B4090],139,< 50,197,–
"CC1(C)CC(N=c2cc3n(-c4ccc(C(F)(F)F)cc4)c4ccccc4nc-3cc2Nc2ccc(C(F)(F)F)cc2)CC(C)(C)N1 [Compound B4103, N,5-bis(4-trifluoromethylphenyl)-3,5-dihydro-3[(2',2',6',6'-tetramethyl-4-piperidyl)imino]-2-phenazinamine]",269,51,351,–
"Cc1ccc(Nc2cc3nc4ccccc4n(-c4ccc(C)cc4)c-3cc2=NC2CCNCC2)cc1 [Compound B4070, N,5-bis(4-methylphenyl)-3,5-dihydro-3-[(4-piperidyl)imino]-2-phenazinamine]",193,54,159,–
"CC1(C)CC(N=c2cc3n(-c4cccc(Cl)c4)c4ccc(Cl)cc4nc-3cc2Nc2cccc(Cl)c2)CC(C)(C)N1 [Compound B4123, N,5-bis(3-chlorophenyl)-8-chloro-3,5-dihydro-3[(2,2',6',6'-tetramethyl-4-piperidyl)-imino]-2-phenazinamine]",181,< 50,333,–
"CC1(C)CC(N=c2cc3n(-c4ccccc4)c4ccccc4nc-3cc2Nc2ccccc2)CC(C)(C)N1 [Compound B3962, N,5-bis(phenyl)-3,5-dihydro-3-[(2',2',6',6'-tetramethyl-4-piperidyl)imino]-2-phenazinamine]",159,70,285,–
CC1(C)CC(N=c2cc3n(-c4ccc(Cl)c(Cl)c4)c4ccccc4nc-3cc2Nc2ccc(Cl)c(Cl)c2)CC(C)(C)N1 [Compound B4100],278,95,335,–
CC1(C)CC(N=c2cc3n(-c4cc(Cl)cc(Cl)c4)c4ccccc4nc-3cc2Nc2cc(Cl)cc(Cl)c2)CC(C)(C)N1 [Compound B4121],722,–,2250,–
"CC1(C)CC(N=c2cc3n(-c4cccc(C(F)(F)F)c4)c4ccc(Cl)cc4nc-3cc2Nc2cccc(C(F)(F)F)c2)CC(C)(C)N1 [Compound B4127, N,5-bis(3-trifluoromethylphenyl)-8-chloro-3,5-dihydro-3-[(2',2',6',6'-tetramethyl-4-piperidyl)-imino]-2-phenazinamine]",168,70,425,–
"CC1(C)CC(N=c2cc3n(-c4cccc(C(F)(F)F)c4)c4ccccc4nc-3cc2Nc2cccc(C(F)(F)F)c2)CC(C)(C)N1 [Compound B4126, N,5-bis(3-trifluoromethyl-4-phenyl)-3,5-dihydro-3-[(2',2',6',6'-tetramethyl-4-piperidyl)-imino]-2-phenazinamine]",246,71,316,–

# Now from value to compound, other results behind:
IC50 (K562/MMB; [9]) [ng/mL],IC50 (K562/MMB; [10]) [ng/mL],IC50 (K562/MMB; [11]) [ng/mL],Structure (SMILES),also measured
155,58,272,"CC(C)c1ccc(Nc2cc3nc4ccccc4n(-c4ccc(C(C)C)cc4)c-3cc2=NC2CC(C)(C)NC(C)(C)C2)cc1 [Compound B4158, N,5-bis(4-isopropylphenyl)-3,5-dihydro-3-[(2',2',6',6'-tetramethyl-4-piperidyl)-imino]-2-phenazinamine]",–
227,< 50,340,"CC1(C)CC(N=c2cc3n(-c4ccc(Cl)c(C(F)(F)F)c4)c4ccccc4nc-3cc2Nc2ccc(Cl)c(C(F)(F)F)c2)CC(C)(C)N1 [Compound B4163, N,5-bis[(3-trifluoromethyl)-4-chlorophenyl]-3,5-dihydro-3-[(2',2',6',6'-tetramethylpiperidyl)-imino]-2-phenazinamie]",–
215,59,383,CC1(C)CC(N=c2cc3n(-c4ccc(Cl)cc4Cl)c4ccccc4nc-3cc2Nc2ccc(Cl)cc2Cl)CC(C)(C)N1 [Compound B4128],–
514,130,912,"CC(C)c1ccc(Nc2cc3nc4cc(Cl)ccc4n(-c4ccc(C(C)C)cc4)c-3cc2=NC2CC(C)(C)NC(C)(C)C2)cc1 [Compound B4159, N,5-bis(4-isopropylphenyl)-8-chloro-3,5-dihydro-3-[(2',2',6',6'-tetramethyl-4-piperidyl)-imino]-2-phenazinamine]",–
210,178,316,"COc1ccc(Nc2cc3nc4ccccc4n(-c4ccc(OC)cc4)c-3cc2=NC2CC(C)(C)NC(C)(C)C2)cc1 [Compound B4174, N,5-bis(4-methoxyphenyl)-3,5-dihydro-3-[(2',2',6',6'-tetramethyl-4-piperidyl)-imino]-2-phenazinamine]",–
296,118,353,CCN(CC)CCCN=c1cc2n(-c3ccc(Cl)c(Cl)c3)c3ccccc3nc-2cc1Nc1ccc(Cl)c(Cl)c1 [Compound B4154],–
